How the values were obtained:
[1] = molecular target: Hc-DAF-12 (Haemonchus contortus, UniProt A0A650FMZ7); experiment: luciferase reporter assay in HEK293 cells transfected with Hc-DAF-12; type: cell-based
[2] = molecular target: T1, Ac-DAF-12 (Ancylostoma caninum, UniProt A0A368G7M4); experiment: luciferase reporter assay in HEK293 cells; type: cell-based
T1 construct: gene ANCCAN_15412
T1 sequence (A0A368G7M4 entry or part of it): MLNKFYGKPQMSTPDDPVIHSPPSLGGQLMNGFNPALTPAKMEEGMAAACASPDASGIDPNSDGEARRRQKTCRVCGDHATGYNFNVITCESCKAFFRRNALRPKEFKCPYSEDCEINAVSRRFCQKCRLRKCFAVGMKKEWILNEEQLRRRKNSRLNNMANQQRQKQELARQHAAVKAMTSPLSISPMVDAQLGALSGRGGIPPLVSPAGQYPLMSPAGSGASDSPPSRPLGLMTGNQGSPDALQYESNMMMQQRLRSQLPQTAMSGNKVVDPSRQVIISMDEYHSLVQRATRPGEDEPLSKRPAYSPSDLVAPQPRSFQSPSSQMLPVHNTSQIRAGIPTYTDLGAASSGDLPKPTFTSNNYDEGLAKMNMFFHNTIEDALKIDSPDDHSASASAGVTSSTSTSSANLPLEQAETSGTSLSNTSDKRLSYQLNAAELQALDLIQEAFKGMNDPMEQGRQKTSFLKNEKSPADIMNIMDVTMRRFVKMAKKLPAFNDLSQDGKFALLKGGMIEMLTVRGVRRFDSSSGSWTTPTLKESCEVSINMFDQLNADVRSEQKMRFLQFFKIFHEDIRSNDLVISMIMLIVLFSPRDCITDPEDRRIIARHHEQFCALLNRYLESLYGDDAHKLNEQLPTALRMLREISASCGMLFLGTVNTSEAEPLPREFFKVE

Sequence of Hc-DAF-12 (A0A650FMZ7 entry or part of it): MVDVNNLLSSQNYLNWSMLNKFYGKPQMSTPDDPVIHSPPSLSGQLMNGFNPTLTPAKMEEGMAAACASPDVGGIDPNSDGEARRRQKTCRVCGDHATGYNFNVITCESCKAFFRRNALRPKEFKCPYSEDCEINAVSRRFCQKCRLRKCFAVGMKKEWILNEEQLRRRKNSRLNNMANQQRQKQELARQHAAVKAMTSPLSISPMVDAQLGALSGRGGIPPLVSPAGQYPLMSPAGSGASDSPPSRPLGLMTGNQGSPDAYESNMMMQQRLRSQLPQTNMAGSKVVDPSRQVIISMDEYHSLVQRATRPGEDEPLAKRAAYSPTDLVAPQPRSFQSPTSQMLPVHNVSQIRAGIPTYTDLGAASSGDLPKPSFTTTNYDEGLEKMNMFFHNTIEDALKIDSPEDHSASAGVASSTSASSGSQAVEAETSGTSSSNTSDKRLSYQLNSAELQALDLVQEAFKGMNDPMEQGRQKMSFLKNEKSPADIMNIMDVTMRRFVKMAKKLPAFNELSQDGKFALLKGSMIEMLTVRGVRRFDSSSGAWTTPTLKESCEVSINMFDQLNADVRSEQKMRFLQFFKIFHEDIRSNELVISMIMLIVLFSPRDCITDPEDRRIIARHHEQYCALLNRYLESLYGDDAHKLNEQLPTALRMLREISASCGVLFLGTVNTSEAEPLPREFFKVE

SMILES: C[C@H](CCC[C@H](C)C(=O)O)[C@H]1CC[C@H]2C3=CC[C@H]4CC(=O)CC[C@]4(C)[C@H]3CC[C@]12C [(25S)-Δ7-DA]
- EC50 [1]: 12.5 nM
- EC50 [2]: 12.8 nM
